pIC50: −log10 of the molar value.
Legend:
Type in all cases: cell-based
[1] = biological target: EP2 subtype of the human PGE2 receptor (Homo sapiens, UniProt P43116); assay: cAMP antagonism test on the human EP2 receptor (HTRF cAMP detection); conditions: hEP2 receptor, read-out: Antagonism hEP2 IC50
Procedure, shortened: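 Read-out is a competitive HTRF for cAMP: lysate cAMP displaces cAMP-d2 from Eu cryptate-labelled antibody, and antagonism raises the 665/620 nm ratio. Compound (0.8 nM–16.5 μM) added to EP2 cells 20 min at RT before 60 min PGE2 challenge (3× stock 1.5 nM) with IBMX, followed by 20 min lysis.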

[2] = biological target: EP4 subtype of the human PGE2 receptor (Homo sapiens, UniProt P35408); assay: cAMP antagonism test on the human EP4 receptor (HTRF cAMP detection); conditions: selectivity towards hEP4, IC50 measured by cAMP antagonism test
Procedure, shortened: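 Competitive HTRF cAMP read-out (cAMP-d2 vs Eu-cryptate anti-cAMP antibody, 665/620 nm ratio) on lysed human EP4 cells. Compound (0.8 nM–16.5 μM) applied 20 min at RT before 60 min PGE2 challenge (3× solution 0.3 nM, IBMX present); 20 min lysis precedes reading.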

[3] = biological target: T1, human PGD receptor (Homo sapiens, UniProt Q13258); assay: cAMP antagonism test on the human prostaglandin D receptor (HTRF cAMP detection); conditions: selectivity towards hDP, IC50 measured by cAMP antagonism test
T1 sequence (Q13258 1-359): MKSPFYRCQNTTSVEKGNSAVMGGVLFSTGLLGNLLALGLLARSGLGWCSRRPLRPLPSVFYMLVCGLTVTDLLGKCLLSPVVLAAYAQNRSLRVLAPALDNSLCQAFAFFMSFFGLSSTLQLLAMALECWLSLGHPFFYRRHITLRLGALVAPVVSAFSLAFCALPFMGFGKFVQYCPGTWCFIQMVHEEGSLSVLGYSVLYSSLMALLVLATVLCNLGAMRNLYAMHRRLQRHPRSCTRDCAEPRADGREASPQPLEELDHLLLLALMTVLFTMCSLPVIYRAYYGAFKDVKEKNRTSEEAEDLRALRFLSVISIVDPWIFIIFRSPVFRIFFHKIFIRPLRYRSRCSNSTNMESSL
Procedure, shortened: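 HTRF competition read-out (665/620 nm ratio ×10000), where higher FRET means less cAMP, i.e. antagonism. Compounds (0.8 nM–16.5 μM) were preincubated 20 min at RT with cells and cAMP-d2, PGD2 (3× solution, 6 nM) in IBMX-containing PBS added for 30 min at RT, then cells lysed 20 min.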

EP4 subtype of the human PGE2 receptor, sequence (P35408 whole entry): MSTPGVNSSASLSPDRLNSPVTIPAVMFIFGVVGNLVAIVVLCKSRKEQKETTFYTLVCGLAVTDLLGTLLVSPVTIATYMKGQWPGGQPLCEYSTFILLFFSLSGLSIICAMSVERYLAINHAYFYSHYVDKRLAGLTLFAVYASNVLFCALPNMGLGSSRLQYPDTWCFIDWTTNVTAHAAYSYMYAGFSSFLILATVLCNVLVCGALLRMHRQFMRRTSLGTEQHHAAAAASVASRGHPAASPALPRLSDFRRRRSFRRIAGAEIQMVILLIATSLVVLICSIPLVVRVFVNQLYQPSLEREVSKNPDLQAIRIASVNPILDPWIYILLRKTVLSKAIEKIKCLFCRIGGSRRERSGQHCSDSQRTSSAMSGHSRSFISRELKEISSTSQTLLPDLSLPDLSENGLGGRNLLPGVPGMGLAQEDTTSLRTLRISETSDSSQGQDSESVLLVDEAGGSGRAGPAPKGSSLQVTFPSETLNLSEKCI
EP2 subtype of the human PGE2 receptor, sequence (P43116 whole entry): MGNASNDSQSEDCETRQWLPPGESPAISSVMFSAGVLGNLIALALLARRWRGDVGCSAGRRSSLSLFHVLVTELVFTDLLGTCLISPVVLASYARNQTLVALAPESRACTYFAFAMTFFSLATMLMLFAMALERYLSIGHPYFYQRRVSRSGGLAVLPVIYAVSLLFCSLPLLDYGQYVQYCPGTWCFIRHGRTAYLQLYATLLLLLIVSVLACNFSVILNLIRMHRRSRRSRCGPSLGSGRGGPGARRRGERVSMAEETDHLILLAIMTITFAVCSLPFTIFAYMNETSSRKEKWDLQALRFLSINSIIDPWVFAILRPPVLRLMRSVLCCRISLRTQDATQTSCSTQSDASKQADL

Row | SMILES | pIC50 [1] | Selectivity hEP2/hEP4 [2] | Selectivity hEP2/hDP [3]
1 | Cc1c(C(=O)NCC(F)(F)F)ccc2nn(CC3CCN(C(=O)c4ccc(Oc5ccc(Cl)cc5)cc4)CC3)cc12 [Example 284, 2-({1-[4-(4-chlorophenoxy)benzoyl]piperidin-4-yl}methyl)-4-methyl-N-(2,2,2-trifluoroethyl)-2H-indazol-5-carboxamide] | 7.25 | xxx (xxx > 100) | xxx (xxx > 100)
2 | Cc1c(C(=O)NCC2COCCO2)ccc2nn(CC3CN(C(=O)c4ccc(Cl)cc4)C3)cc12 (single isomer, unassigned) [Example 143, (S or R)-2-{[1-(4-chlorobenzoyl)azetidin-3-yl]methyl}-N-(1,4-dioxan-2-ylmethyl)-4-methyl-2H-indazol-5-carboxamide] | 7.43 | xxx (xxx > 100) | xxx (xxx > 100)
3 | COCCNC(=O)c1ccc2nn(CC3CCN(C(=O)c4ncc(-c5ccccc5)o4)CC3)cc2c1C [Example 354, N-(2-methoxyethyl)-4-methyl-2-({1-[(5-phenyloxazol-2-yl)carbonyl]piperidin-4-yl}methyl)-2H-indazol-5-carboxamide] | 8.23 | xxx (xxx > 100) | xxx (xxx > 100)
4 | Cc1ccc(-c2ccc(C(=O)N3CCC(Cn4cc5c(C)c(C(=O)NCC(F)(F)F)ccc5n4)CC3)cc2)nc1 [Example 324, 4-methyl-2-({1-[4-(5-methylpyridin-2-yl)benzoyl]piperidin-4-yl}methyl)-N-(2,2,2-trifluoroethyl)-2H-indazol-5-carboxamide] | 6.34 | xx (xx: 10-100) | xx (xx: 10-100)
5 | Cc1cc2nn(CC3CN(C(=O)c4ccc(OC(F)(F)F)cc4)C3)cc2cc1C(=O)NCCN1CCOCC1 [Example 279, 6-methyl-N-(2-morpholinoethyl)-2-({1-[4-(trifluoromethoxy)benzoyl]azetidin-3-yl}methyl)-2H-indazol-5-carboxamide] | 7.24 | xxx (xxx > 100) | xxx (xxx > 100)
6 | Cc1c(C(=O)NCC(F)(F)F)ccc2nn(CC3CN(C(=O)c4ccc(C(F)(F)F)cc4F)C3)cc12 [Example 131, 2-({1-[2-fluoro-4-(trifluoromethyl)benzoyl]azetidin-3-yl}methyl)-4-methyl-N-(2,2,2-trifluoroethyl)-2H-indazol-5-carboxamide] | 6.64 | xx (xx: 10-100) | xx (xx: 10-100)
7 | Cc1c(C(=O)NCCOC(C)C)ccc2nn(CC3CCN(C(=O)c4ccc(Cl)cc4)CC3)cc12 [Example 96, 2-{[1-(4-chlorobenzoyl)piperidin-4-yl]methyl}-N-(2-isopropoxyethyl)-4-methyl-2H-indazol-5-carboxamide] | 8.03 | xxx (xxx > 100) | xxx (xxx > 100)
8 | COCCNC(=O)c1ccc2nn(CC3CN(C(=O)c4cc5cc(F)ccc5n4C)C3)cc2c1C [Example 170, 2-({1-[(5-fluoro-1-methyl-1H-indol-2-yl)carbonyl]azetidin-3-yl}methyl)-N-(2-methoxyethyl)-4-methyl-2H-indazol-5-carboxamide] | 8.37 | xxx (xxx > 100) | xxx (xxx > 100)
9 | Cc1c(C(=O)NCCO)ccc2nn(CC3CCN(C(=O)c4ccc(Cl)cc4)CC3)cc12 [Example 252, 2-{[1-(4-chlorobenzoyl)piperidin-4-yl]methyl}-N-(2-hydroxyethyl)-4-methyl-2H-indazol-5-carboxamide] | 6.53 | xx (xx: 10-100) | xx (xx: 10-100)
10 | Cc1c(C(=O)NCC(F)(F)F)ccc2nn(CC3CCN(C(=O)c4nc5ccccc5o4)CC3)cc12 [Example 299, 2-{[1-(benzoxazol-2-ylcarbonyl)piperidin-4-yl]methyl}-4-methyl-N-(2,2,2-trifluoroethyl)-2H-indazol-5-carboxamide] | 6.27 | xx (xx: 10-100) | xx (xx: 10-100)
11 | COCCNC(=O)c1cc2cn(CC3CN(C(=O)c4ccc(Cl)cc4F)C3)nc2cc1C [Example 183, 2-{[1-(4-chloro-2-fluorobenzoyl)azetidin-3-yl]methyl}-N-(2-methoxyethyl)-6-methyl-2H-indazol-5-carboxamide] | 7.33 | xxx (xxx > 100) | xxx (xxx > 100)
12 | COCCNC(=O)c1ccc2nn(CC3CCN(C(=O)c4ccc(OC5CCCC5)cc4)CC3)cc2c1C [Example 31, 2-({1-[4-(cyclo-pentyloxy)benzoyl]-piperidin-4-yl}-methyl)-N-(2-methoxyethyl)-4-methyl-2H-indazol-5-carboxamide] | 8.51 | xxx (xxx > 100) | xxx (xxx > 100)
13 | Cc1cc2nn(CC3CN(C(=O)c4ccc(S(F)(F)(F)(F)F)cc4)C3)cc2cc1C(=O)NCCN1CCOCC1 [Example 280, 6-methyl-N-(2-morpholinoethyl)-2-({1-[4-(pentafluoro-λ^6-sulphanyl)benzoyl]-azetidin-3-yl}methyl)-2H-indazol-5-carboxamide] | 7.51 | xxx (xxx > 100) | xxx (xxx > 100)
14 | COCCNC(=O)c1ccc2nn(CC3CCN(C(=O)c4ccc(-c5ccc(OC)cc5C)cc4)CC3)cc2c1C [Example 370, N-(2-methoxyethyl)-2-({1-[(4′-methoxy-2′-methylbiphenyl-4-yl)carbonyl]-piperidin-4-yl}methyl)-4-methyl-2H-indazol-5-carboxamide] | 8.51 | xxx (xxx > 100) | xxx (xxx > 100)
15 | Cc1ccc(C(=O)N2CCC(Cn3cc4c(C)c(C(=O)NCCOCC(F)(F)F)ccc4n3)CC2)cc1 [Example 91, 4-methyl-2-{[1-(4-methylbenzoyl)-piperidin-4-yl]-methyl}-N-[2-(2,2,2-trifluoro-ethoxy)ethyl]-2H-indazol-5-carboxamide] | 7.69 | xxx (xxx > 100) | xxx (xxx > 100)
16 | COCCNC(=O)c1ccc2nn(CC3CCN(C(=O)c4ccc(S(F)(F)(F)(F)F)cc4)CC3)cc2c1OC [Example 268, 4-methoxy-N-(2-methoxyethyl)-2-({1-[4-(pentafluoro-λ^6-sulphanyl)benzoyl]-piperidin-4-yl}methyl)-2H-indazol-5-carboxamide] | 7.64 | xxx (xxx > 100) | xxx (xxx > 100)
17 | COCCNC(=O)c1ccc2nn(CC3CCN(C(=O)c4nc(-c5ccccc5)no4)CC3)cc2c1C [Example 352, N-(2-methoxyethyl)-4-methyl-2-({1-[(3-phenyl-1,2,4-oxadiazol-5-yl)carbonyl]-piperidin-4-yl}methyl)-2H-indazol-5-carboxamide] | 7.66 | xxx (xxx > 100) | xxx (xxx > 100)
18 | CCc1c(C(=O)NCCOC)ccc2nn(CC3CCN(C(=O)c4ccc(Cl)cc4)CC3)cc12 [Example 212, 2-{[1-(4-chlorobenzoyl)piperidin-4-yl]methyl}-4-ethyl-N-(2-methoxyethyl)-2H-indazol-5-carboxamide] | 6.97 | xxx (xxx > 100) | xxx (xxx > 100)

— patent publication US9062041B2 (Bayer Intellectual Property GmbH, priority 2011, dated 2015)
